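Cultured in 96-well plates, cells were exposed to test compound for 48 hours across five concentrations. Here, GI50 denotes the concentration required for 50% inhibition of growth.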 Activity calls are given as the source filed them. Cut-off read from the data, not from the text of the source: active = GI50 up to about 1.1 µM and inactive = higher. Some results are limits rather than exact numbers.

10 molecules from ChEMBL document CHEMBL1201862, “PubChem BioAssay data set” (2004) can be followed below.

Among the test systems are RPMI-8226; SK-MEL-28; LOX IMVI; UO-31; OVCAR-8; SK-MEL-2; NCI-H23; HOP-62; UACC-62; OVCAR-5; SNB-19; U-251; UACC-257; SNB-75; IGROV-1; CCRF-CEM; K562; OVCAR-3; MOLT-4; HCT-15.
Common to all, as to assay: NCI anticancer screen, dose series, 48 h

In the case of `NC(=O)c1csc(C2O[C@@H](COP(=O)(O)OP(=O)(O)OC[C@H]3OC(n4cnc5c(N)ncnc54)[C@H](O)[C@@H]3O)[C@H](O)[C@@H]2O)n1` (stereo not given in full), the GI50 was 65.2 µM (inactive) in the assay with RPMI-8226; 30 µM (inactive) with SK-MEL-28; 54.5 µM (inactive) in the assay with LOX IMVI; > 100 µM (inactive) in the assay with UO-31; 73.8 µM (inactive) in the assay with OVCAR-8; > 100 µM (inactive) in the assay on SK-MEL-2. Moreover, the GI50 is > 100 µM (inactive) in the assay with NCI-H23; > 100 µM (inactive) in the assay with HOP-62; 72.1 µM (inactive) with UACC-62; > 100 µM (inactive) in the assay on OVCAR-5; > 100 µM (inactive) with SNB-19; 45.8 µM (inactive) in the assay on U-251. Moreover, the GI50 in the assay with UACC-257 was 66.8 µM (inactive); with SNB-75 it was 45 µM (inactive); with IGROV-1, > 100 µM (inactive); in the assay on CCRF-CEM it was > 100 µM (inactive); in the assay with K562 it was 23.6 µM (inactive); in the assay with OVCAR-3 it was > 100 µM (inactive). The GI50 with MOLT-4 was 59.2 µM (inactive); with HCT-15, greater than 100 µM.

`C=C1C(=O)C[C@@]23CCC[C@@]12CC(OCOC)C3` (stereo not given in full): the GI50 was 2.55 µM (inactive) in the assay with RPMI-8226; 2.69 µM (inactive) in the assay with SK-MEL-28; 1.61 µM (inactive) in the assay on LOX IMVI; 5.46 µM (inactive) with UO-31; 3.09 µM (inactive) in the assay with OVCAR-8; 4.16 µM (inactive) with SK-MEL-2. Also, the GI50 in the assay with NCI-H23 is 3.43 µM (inactive); with HOP-62, 12 µM (inactive); with UACC-62, 2.61 µM (inactive); in the assay on OVCAR-5 it was 3.61 µM (inactive); in the assay on SNB-19 it was 14.6 µM (inactive); in the assay on U-251 it was 8.47 µM (inactive). Further, the GI50 with UACC-257 was 2.5 µM (inactive); in the assay on SNB-75, 2.1 µM (inactive); with IGROV-1 it was 1.85 µM (inactive); in the assay with CCRF-CEM, 1.62 µM (inactive); in the assay with K562, 3.12 µM (inactive); in the assay with OVCAR-3, 2.72 µM (inactive). The values for the GI50 with MOLT-4 and in the assay on HCT-15 were 2.5 µM (inactive) and 1.36 µM, respectively.

On to `O=NN(CCCl)C(=O)N[C@H]1CC[C@H](C(=O)O)CC1`, for which the GI50 in the assay on RPMI-8226 was > 66.8 µM (inactive); in the assay on SK-MEL-28 it was > 100 µM (inactive); in the assay with LOX IMVI, > 72.6 µM (inactive); with UO-31, > 100 µM (inactive); in the assay on OVCAR-8 it was > 100 µM (inactive); in the assay with SK-MEL-2, > 100 µM (inactive). The GI50 with NCI-H23 is > 100 µM (inactive); in the assay with HOP-62 it was 95.5 µM (inactive); in the assay on UACC-62, 20.2 µM (inactive); with OVCAR-5 it was > 100 µM (inactive); with SNB-19 it was > 61.1 µM (inactive); with U-251, 35.8 µM (inactive). Also, the GI50 is > 100 µM (inactive) in the assay on UACC-257; > 80.2 µM (inactive) in the assay on SNB-75; > 100 µM (inactive) in the assay with IGROV-1; 36.3 µM (inactive) in the assay on CCRF-CEM; > 100 µM (inactive) in the assay on K562; > 100 µM (inactive) in the assay on OVCAR-3. Also, the values for the GI50 in the assay with MOLT-4 and in the assay with HCT-15 were 5.32 µM (inactive) and greater than 100 µM, respectively.

In the case of `COc1ccc(C2CC(c3sc(Nc4ccc(C)cc4)nc3C)=NN2)cc1` (stereo not given), the GI50 with RPMI-8226 is 12.4 µM (inactive); in the assay with SK-MEL-28, 16.8 µM (inactive); in the assay on LOX IMVI, 18.2 µM (inactive); with UO-31 it was 14.2 µM (inactive); in the assay on OVCAR-8, 15.5 µM (inactive); with SK-MEL-2, 15.8 µM (inactive). Besides, the GI50 in the assay on NCI-H23 is 15.5 µM (inactive); in the assay with HOP-62, 20.7 µM (inactive); with UACC-62, 40 µM (inactive); with OVCAR-5 it was 22.4 µM (inactive); in the assay with SNB-19 it was 15.7 µM (inactive); in the assay with U-251, 14.8 µM (inactive). Besides, the GI50 was 15.8 µM (inactive) with UACC-257; 14.8 µM (inactive) in the assay with SNB-75; > 40.8 µM (inactive) in the assay on IGROV-1; 11.1 µM (inactive) in the assay on CCRF-CEM; 12.8 µM (inactive) in the assay on K562; 15.8 µM (inactive) with OVCAR-3. The results for the GI50 in the assay with MOLT-4 and in the assay with HCT-15 were 8.34 µM (inactive) and 15.1 µM, respectively.

Consider `CCOC(=O)c1cc2c([N+](=O)[O-])c(NC(C)=O)ccc2s1`, for which the GI50 is 24.4 µM (inactive) with RPMI-8226; > 100 µM (inactive) in the assay with SK-MEL-28; 60.4 µM (inactive) in the assay on LOX IMVI; 47.3 µM (inactive) with UO-31; > 100 µM (inactive) in the assay with OVCAR-8; > 100 µM (inactive) with SK-MEL-2. Moreover, the GI50 in the assay with NCI-H23 was 71.9 µM (inactive); in the assay with HOP-62 it was 90.2 µM (inactive); with UACC-62, 66.7 µM (inactive); with OVCAR-5, > 100 µM (inactive); in the assay on SNB-19 it was > 100 µM (inactive); in the assay with U-251 it was 44.6 µM (inactive). For the same molecule, the GI50 with UACC-257 is > 100 µM (inactive); in the assay on SNB-75, 19.3 µM (inactive); in the assay with IGROV-1, 72.9 µM (inactive); in the assay with CCRF-CEM, 53 µM (inactive); with K562 it was 53.6 µM (inactive); in the assay on OVCAR-3, 38.4 µM (inactive). In addition, the values for the GI50 with MOLT-4 and with HCT-15 were 31.4 µM (inactive) and 86.9 µM, respectively.

For the molecule `NC(=O)c1ncn2c1NC(=O)CC2`, the GI50 with RPMI-8226, in the assay with SK-MEL-28, in the assay with LOX IMVI, in the assay on UO-31, in the assay on OVCAR-8 and with SK-MEL-2 was > 100 µM (inactive) in each case. Also, the GI50 in the assay on NCI-H23 is > 100 µM (inactive); in the assay with HOP-62, > 100 µM (inactive); in the assay on UACC-62, > 67.8 µM (inactive); with OVCAR-5 it was > 100 µM (inactive); in the assay on SNB-19 it was > 100 µM (inactive); with U-251, > 100 µM (inactive). The GI50 in the assay on UACC-257, in the assay on SNB-75, in the assay with IGROV-1, in the assay on CCRF-CEM, with K562 and in the assay on OVCAR-3 was > 100 µM (inactive) in each case. Also, the figures for the GI50 in the assay with MOLT-4 and in the assay with HCT-15 were > 100 µM (inactive) and greater than 100 µM, respectively.

Regarding `O=P(CCOc1ccccc1OCCP(=O)(c1ccccc1)c1ccc2c(c1)OCCOCCOCCOCCO2)(c1ccccc1)c1ccc2c(c1)OCCOCCOCCOCCO2` (stereo not given), the GI50 in the assay on RPMI-8226, with SK-MEL-28, in the assay on LOX IMVI, in the assay with UO-31, in the assay on OVCAR-8 and in the assay with SK-MEL-2 was > 100 µM (inactive) throughout. Also, the GI50 in the assay on NCI-H23, with HOP-62, with UACC-62, in the assay with OVCAR-5, with SNB-19 and in the assay with U-251 was > 100 µM (inactive) throughout. Further, the GI50 in the assay on UACC-257, in the assay with SNB-75, with IGROV-1, in the assay with CCRF-CEM, in the assay on K562 and in the assay with OVCAR-3 was > 100 µM (inactive) in each case. The GI50 with MOLT-4 was > 100 µM (inactive); in the assay with HCT-15, greater than 100 µM.

On to `C=CCN1C(=O)/C(=C/c2ccc(OC)cc2)NC1=S`, for which the GI50 in the assay with RPMI-8226 is 35.2 µM (inactive); in the assay on SK-MEL-28, > 100 µM (inactive); with LOX IMVI, 56.1 µM (inactive); in the assay with UO-31, 61.4 µM (inactive); in the assay on OVCAR-8, 25.7 µM (inactive); in the assay with SK-MEL-2, > 100 µM (inactive). Besides, the GI50 with NCI-H23 is 58.3 µM (inactive); with HOP-62, > 100 µM (inactive); in the assay with UACC-62, 97.7 µM (inactive); in the assay on OVCAR-5 it was > 100 µM (inactive); in the assay on SNB-19, > 100 µM (inactive); with U-251 it was 82.2 µM (inactive). Also, the GI50 was 27.9 µM (inactive) in the assay with UACC-257; > 100 µM (inactive) in the assay on SNB-75; > 100 µM (inactive) with IGROV-1; < 0.01 µM (active) in the assay on CCRF-CEM; 38.5 µM (inactive) in the assay with K562; > 100 µM (inactive) with OVCAR-3. Further, the GI50 was 4.59 µM (inactive) in the assay on MOLT-4 and greater than 100 µM in the assay on HCT-15.

As for `CC1CC(NC2CCCCC2)=Nc2ccccc2N1Cc1ccccc1` (stereo not given), the GI50 was 2.6 µM (inactive) with RPMI-8226; 4.38 µM (inactive) with SK-MEL-28; 2.11 µM (inactive) in the assay with LOX IMVI; 4.66 µM (inactive) in the assay with UO-31; 6.59 µM (inactive) with OVCAR-8; 11.2 µM (inactive) in the assay on SK-MEL-2. The GI50 in the assay on NCI-H23 was 7.33 µM (inactive); in the assay with HOP-62, 7.03 µM (inactive); with UACC-62, 1.79 µM (inactive); in the assay with OVCAR-5, 5.09 µM (inactive); in the assay with SNB-19 it was 11.3 µM (inactive); in the assay on U-251 it was 7.16 µM (inactive). Further, the GI50 is 3.45 µM (inactive) in the assay on UACC-257; 0.417 µM (active) in the assay on SNB-75; 1.91 µM (inactive) with IGROV-1; 4.13 µM (inactive) with CCRF-CEM; 1.73 µM (inactive) in the assay on K562; 6.92 µM (inactive) with OVCAR-3. In addition, the GI50 with MOLT-4 is 3.55 µM (inactive); with HCT-15 it was 5.33 µM.

Consider `O=CN1CCC23CC(O)CCC2C1Cc1cc(Oc2nnnn2-c2ccccc2)cc(O)c13` (stereo not given), for which the GI50 in the assay with RPMI-8226 was 93.3 µM (inactive); in the assay with SK-MEL-28, > 100 µM (inactive); with LOX IMVI it was 57.3 µM (inactive); in the assay with UO-31 it was 85.3 µM (inactive); in the assay with OVCAR-8 it was > 100 µM (inactive); with SK-MEL-2, 81.3 µM (inactive). In addition, the GI50 in the assay with NCI-H23 was > 100 µM (inactive); in the assay on HOP-62 it was > 100 µM (inactive); in the assay with UACC-62, 65.2 µM (inactive); in the assay with OVCAR-5 it was > 100 µM (inactive); with SNB-19 it was > 100 µM (inactive); with U-251, > 100 µM (inactive). In addition, the GI50 in the assay on UACC-257 is > 100 µM (inactive); in the assay with SNB-75, > 100 µM (inactive); in the assay on IGROV-1, 37.8 µM (inactive); in the assay with CCRF-CEM, 65.5 µM (inactive); in the assay with K562, > 100 µM (inactive); with OVCAR-3, > 100 µM (inactive). Also, the figures for the GI50 with MOLT-4 and with HCT-15 were 48.9 µM (inactive) and 80 µM, respectively.
